We go through 1 compound from patent publication US4788179A, “Method of treating amyotrophic lateral sclerosis with dipeptide derivatives and pharmaceutical compositions for use therein” (Gruenenthal GmbH, priority 1984, dated 1988).

The subject of data set [1] is amyotrophic lateral sclerosis (ALS) patients. The data set is described as follows: Clinical studies: treatment of ALS patients by infusion. The data set is classed as in vivo, human. How it is done: The surprising activity of the compounds of formula I and of medicaments containing these ingredients in the treatment of ALS patients can be seen from the following examples of effects which resulted after administration of orotyl-L-histidyl-L-prolinamide in clinical studies. This active ingredient was filled in lyophilized form in 6 mg portions in bottles, closed with rubber stoppers, also containing 12 mg mannitol.
A patient with bulbar palsy caused by ALS was treated three times daily (at 4 hour intervals) on four consecutive days in form of short infusions (i.e. within 30 minutes) with the active ingredient. The total cumulative doses were on the first day 18 mg, on the second day 36 mg, on the third day 54 mg and on the fourth day 72 mg. The single doses for each infusion were dissolved in 100 ml of a sterile isotonic solution of sodium chloride.
Another ALS patient, suffering for eight months from ALS, was treated in the same manner as described above. […] For instance, they became able to lift their arms above horizontal, to walk without a stick, to climb stairs without support, and they became independent in activities of everyday life (such as shaving, washing, cutting with a knife, using a fork, writing, etc.).
Three other ALS patients, who had been ill for five, seven and twelve months, respectively, were each treated on four consecutive days three times daily with 24 mg of the active ingredient, dissolved in 5% aqueous glucose solution, by intravenous infusion, applied within 30 minutes. […] Again the observed side effects were insignificant and could be neglected.

Data set [2] shares this test system. Described as above. The class given is in vivo, human. The source holds these as a separate data set.
Where [3] appears, read: Example 3: three ALS patients, 24 mg three times daily, four days, intravenous infusion.

Regarding `NC(=O)[C@@H]1CCCN1C(=O)[C@H](Cc1c[nH]cn1)NC(=O)c1cc(=O)[nH]c(=O)[nH]1` [orotyl-L-histidyl-L-prolinamide], the “improvement in bulbar symptoms” value in data set [1] (Example 1: one patient with bulbar palsy caused by ALS, short infusions (30 minutes) three times daily on four consecutive days, daily totals 18, 36, 54, 72 mg) is listed as “remarkable improvements in the bulbar symptoms”. In addition, in data set [1] (Example 1: patient with bulbar palsy, four-day infusion treatment), the “persistence of improvement after medication ended” value is “remained for several days”. In data set [1] (Example 1: short infusions three times daily, four days, daily totals 18, 36, 54, 72 mg), the “side effects of the treatment” value was “insignificant”. In addition, the “persistence of improvement after therapy finished” value in data set [1] (Example 2: four days therapy, same regimen as Example 1) is on record as “sustained for some days”. The “improvement in muscle weakness” value in data set [1] (Example 2: one patient suffering for eight months from ALS, same regimen as Example 1) is “striking improvement in muscle weakness”. In data set [1] (Example 3: three ALS patients, 24 mg three times daily on four consecutive days, intravenous infusion in 5% glucose within 30 minutes), the “improvement in everyday motor abilities” value is “Remarkable improvements were noted in using buttons and zippers and in the ability to walk without assistance”. Moreover, in data set [1] (setting [3]), the clonic reflexes result was “changed to normal”, the observed side effects result is “insignificant” and the “tendency to become fatigued” value is listed as “reduced”. Also, the “effect on hand musculature” value in data set [2] (Example 4: one ALS patient with pronounced atrophy of the hand muscles, total 18 mg on one day (infusions of 6 mg at four hour intervals)) is on record as “evident effect on the hand musculature”. Also, the “persistence of effect after ending of medication” value in data set [2] (Example 4: total 18 mg on one day by infusion) is listed as “remained for some time”.
